Results published in PMC8175309, “Translational CNS Steady-State Drug Disposition Model in Rats, Monkeys, and Humans for Quantitative Prediction of Brain-to-Plasma and Cerebrospinal Fluid-to-Plasma Unbound Concentration Ratios” (The AAPS Journal, 2021).
Where two headings read alike, the source gives them in different places.

What was measured:
[1] = cited from earlier work
[2] = cited from earlier work; remark: listed apart in the source
[3] = Observed Kp,uu,brain and Kp,uu,CSF in monkeys; conditions: cynomolgus monkey, intravenous
Method: Monkey experiments were conducted internally or at the Drug Safety Research Laboratories in Shin Nippon Biomedical Laboratories via consignment to Axcelead Drug Discovery Partners. […] Detailed dosage regimen for each compound is summarized in Supplemental Table 3. […] Each cassette was assigned to a separate group of monkeys. The vehicle was saline or a mixture of dimethylacetamide and 1,3-butanediol (1:1, v/v). At the end of the 6-h infusion or 1 h after intravenous bolus administration, the monkeys were anesthetized, and whole blood, CSF, and whole brain were collected. Blood was collected using the anticoagulant, heparin sodium, and immediately centrifuged; the plasma was transferred to polypropylene tubes. Then, ketamine hydrochloride (50 mg/mL; 0.2 mL/kg; 10 mg/kg) was intramuscularly administered. CSF was collected after lumbar puncture using a spinal needle (22–25G) and a syringe pre-wetted with 10% CHAPS solution to prevent adsorption of compounds to all the equipment during pretreatment. CSF samples were immediately centrifuged, and the supernatant layers were transferred to polypropylene tubes. […] After collecting the cerebellum, hippocampus, and cerebral cortex from the whole brain, these were washed with cold saline, weighed, and homogenized immediately in 4 volumes of ice-cold 100 mmol/L sodium phosphate buffer. All samples were stored at –80°C until analysis by LC-MS/MS. Each sample (50 μL) was mixed with the working solution (the mixture of dimethyl sulfoxide and acetonitrile (2:8, v/v)), and protein was precipitated by the addition of 150 μL acetonitrile containing the internal standards (5 ng/mL alprenolol and diclofenac). After centrifugation at 5,250 rpm and 4°C for 5 min, the supernatant (150 μL) was transferred to a polypropylene 96-well plate (Corning; Corning, NY, USA) and completely evaporated under a gentle stream of N2. The residue was reconstituted in dilution solution (mobile phase A/B (7:3, v/v)), and the supernatant was analyzed by LC-MS/MS.
Each sample (50 μL) was mixed with the working solution (the mixture of dimethyl sulfoxide and acetonitrile (2:8, v/v)), and the protein was precipitated by adding 150 μL acetonitrile containing internal standards (5 ng/mL alprenolol and diclofenac). After centrifugation at 5250 rpm and 4°C for 5 min, the supernatant (150 μL) was transferred to a polypropylene 96-well plate (Corning) and completely evaporated under a gentle stream of N2. The residue was reconstituted in mobile phase A/B (7:3, v/v)), and the supernatant was analyzed by LC-MS/MS. API5000 and QTRAP5500 (AB SCIEX, Framingham, MA, USA) equipped with Ultra-Fast Liquid Chromatography (Shimadzu, Kyoto, Japan) were used for determination of drug concentrations. Reversed-phase chromatography was performed using Shim-pack XR ODS (2.2 μm, 2.0×30 mm). Mobile phase A consisted of 10 mM ammonium formate with 0.2% formic acid, and mobile phase B contained acetonitrile with 0.2% formic acid. […] The mass spectrometer was operated in the positive ionization mode with multiple reaction monitoring (MRM). The MRM parameters (Q1 ion, Q3 ion, DP, EP, CE, and CXP) for monitoring the compounds are shown in Supplemental Table 4. Data acquisition and processing were performed using Analyst 1.6.2 (AB SCIEX, Framingham, MA, USA).
To perform correlation analyses between the observed Kp,uu,brain and Kp,uu,CSF, and the model-based prediction of Kp,uu,brain and Kp,uu,CSF, data from literature information were integrated into the internally obtained data for these assessments (Supplemental Table 2) ([17],[22]–[24],[27]–[33]). When only the total concentrations in plasma, CSF, and brain were available, the total concentration ratio in plasma to CSF or brain (Kp,CSF or Kp,brain, respectively) was estimated, followed by calculation of Kp,uu,CSF or Kp,uu,brain based on Eqs.

BCRP = biological target: T1, BCRP (Homo sapiens, UniProt Q9UNQ0); assay: Transcellular transport across MDCK-BCRP cell monolayers (efflux ratio); conditions: dog, pH 7.4
T1 sequence (Q9UNQ0 1-655): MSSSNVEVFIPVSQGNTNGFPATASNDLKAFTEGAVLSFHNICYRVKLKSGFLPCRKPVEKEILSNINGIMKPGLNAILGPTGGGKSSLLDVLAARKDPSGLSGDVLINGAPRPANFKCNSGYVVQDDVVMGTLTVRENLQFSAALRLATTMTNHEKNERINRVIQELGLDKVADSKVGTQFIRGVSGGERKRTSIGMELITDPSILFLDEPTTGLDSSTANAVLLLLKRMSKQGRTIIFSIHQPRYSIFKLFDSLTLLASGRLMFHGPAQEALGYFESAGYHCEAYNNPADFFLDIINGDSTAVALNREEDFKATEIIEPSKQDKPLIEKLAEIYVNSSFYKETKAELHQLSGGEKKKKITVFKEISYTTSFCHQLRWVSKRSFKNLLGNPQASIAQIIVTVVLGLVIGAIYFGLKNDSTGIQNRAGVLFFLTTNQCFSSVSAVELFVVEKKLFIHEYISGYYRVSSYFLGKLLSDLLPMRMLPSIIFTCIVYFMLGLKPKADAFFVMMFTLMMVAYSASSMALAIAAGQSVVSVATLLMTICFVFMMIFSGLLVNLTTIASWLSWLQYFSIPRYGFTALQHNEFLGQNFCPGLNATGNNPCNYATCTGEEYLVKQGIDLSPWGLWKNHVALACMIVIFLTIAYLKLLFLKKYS
Method: (§1) To the compounds available internally, in vitro efflux ratios for MDR1 and BCRP were determined by the following procedure (Supplemental Table 2). Test compound stock solutions in dimethyl sulfoxide (DMSO) were diluted in transport buffer (Hanks’ balanced salt solution (HBSS) with 10 mM HEPES, pH 7.4) to a concentration of 1 μM (DMSO < 1%) and applied to the apical or basolateral side of a cell monolayer derived from Madin-Darby canine kidney (MDCK)-MDR1 and MDCK-BCRP cells. Permeation of the test compounds from apical to basolateral (A to B) direction or B to A direction was measured in duplicate. The plate was incubated for 1 h in a CO2 incubator at 37±1°C with 5% CO2 at saturated humidity without shaking. In addition, the efflux ratio of each compound was also determined. Test and reference compounds were quantified by LC-MS/MS analysis based on the peak area ratio of analyte/internal standard.
(§2) The apparent permeability coefficient Papp (cm/s) was calculated by using Eq. 1: 1 Papp=dCr/dt×Vr/A×C0 where dCr/dt is the cumulative concentration of the compound in the receiver chamber as a function of time (μM/s); Vr is the volume of the solution in the receiver chamber (0.075 mL on the apical side, 0.25 mL on the basolateral side); A is the surface area for transport, i.e., 0.0804 cm^2 for the area of the monolayer; and C0 is the initial concentration (μM) in the donor chamber.
(§3) The efflux ratio was calculated using Eq. 2: 2 Efflux ratio=Papp,BtoA/Papp,AtoB

MDR1 = MDR1 (Homo sapiens, UniProt P08183); assay: in vitro; conditions: dog, MDCK-MDR1, pH 7.4
Method: as §1, §2, §3

Chain of MDR1 (P08183 whole entry): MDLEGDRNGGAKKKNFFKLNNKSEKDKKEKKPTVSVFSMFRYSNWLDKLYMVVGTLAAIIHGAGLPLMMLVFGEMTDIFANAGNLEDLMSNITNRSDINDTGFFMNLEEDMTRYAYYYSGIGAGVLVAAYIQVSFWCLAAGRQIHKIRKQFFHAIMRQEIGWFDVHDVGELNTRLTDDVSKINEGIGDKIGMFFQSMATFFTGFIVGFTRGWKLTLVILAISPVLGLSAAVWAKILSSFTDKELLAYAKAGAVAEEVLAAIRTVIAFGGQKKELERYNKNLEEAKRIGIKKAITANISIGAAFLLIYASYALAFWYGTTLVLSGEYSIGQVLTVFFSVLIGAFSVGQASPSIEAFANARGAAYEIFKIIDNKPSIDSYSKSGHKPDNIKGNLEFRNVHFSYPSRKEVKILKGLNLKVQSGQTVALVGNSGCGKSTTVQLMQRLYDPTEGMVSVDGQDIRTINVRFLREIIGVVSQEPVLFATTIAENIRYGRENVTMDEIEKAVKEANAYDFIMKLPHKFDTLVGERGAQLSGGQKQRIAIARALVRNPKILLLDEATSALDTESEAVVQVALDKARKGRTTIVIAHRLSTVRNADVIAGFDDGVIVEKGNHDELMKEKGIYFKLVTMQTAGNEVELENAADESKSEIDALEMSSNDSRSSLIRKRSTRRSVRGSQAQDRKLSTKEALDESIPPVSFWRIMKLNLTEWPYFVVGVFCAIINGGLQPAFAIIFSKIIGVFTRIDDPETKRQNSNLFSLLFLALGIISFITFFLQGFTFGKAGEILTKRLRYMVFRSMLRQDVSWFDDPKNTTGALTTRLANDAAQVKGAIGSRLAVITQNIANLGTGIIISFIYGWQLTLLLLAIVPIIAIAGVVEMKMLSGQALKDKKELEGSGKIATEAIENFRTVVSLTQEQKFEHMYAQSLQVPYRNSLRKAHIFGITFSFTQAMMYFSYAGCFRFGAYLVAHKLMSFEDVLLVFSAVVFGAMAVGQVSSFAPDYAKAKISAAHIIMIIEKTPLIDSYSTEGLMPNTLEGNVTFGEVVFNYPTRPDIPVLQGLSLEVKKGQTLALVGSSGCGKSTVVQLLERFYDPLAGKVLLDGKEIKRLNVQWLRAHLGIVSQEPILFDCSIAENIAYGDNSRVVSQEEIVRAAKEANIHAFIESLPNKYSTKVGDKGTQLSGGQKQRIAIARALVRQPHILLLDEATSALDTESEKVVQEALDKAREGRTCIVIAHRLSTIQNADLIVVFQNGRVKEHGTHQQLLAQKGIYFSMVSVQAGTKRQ

| SMILES | Kp,uu,CSF Human ([1]; *4 ref Friden et al. (21)) | Kp,uu,CSF Rat ([2]; *4 ref Friden et al. (21)) | Kp,uu,brain Rat ([2]; *4 ref Friden et al. (21)) | further results |
| --- | --- | --- | --- | --- |
| CN(C)CCC=C1c2ccccc2CCc2ccccc21 [Amitriptyline] | 0.18 | 0.17 |  |  |
| NCC(CC(=O)O)c1ccc(Cl)cc1 (stereo not shown) [Baclofen] | 0.17 | 0.027 | 0.02 | Kp uu at 6 h ([3]; CSF (lumbar) / plasma): 0.03; Kp uu at 6 h ([3]; brain / plasma): 0.037 |
| CO/N=C(\C(=O)N[C@@H]1C(=O)N2C(C(=O)O)=C(COC(C)=O)CS[C@H]12)c1csc(N)n1 [Cefotaxime] | 0.17 |  |  | Kp,uu,brain Human ([1]; *4 ref Friden et al. (21)): 0.007 |
| CN(C)CCCC1(c2ccc(F)cc2)OCc2cc(C#N)ccc21 (stereo not shown) [Citalopram] |  |  |  | Kp,uu,brain Human ([1]; *3 ref Summerfield et al. (25)): 0.347; Kp,uu,brain Rat ([2]; *3 ref Summerfield et al. (25)): 0.623; Kp,uu,CSF Rat ([2]; *7 ref Kodaira et al. (20)): 0.667; Kp,uu,brain Rat ([2]; *7 ref Kodaira et al. (20)): 0.494 |
| COc1ccc2c3c1O[C@H]1[C@@H](O)C=C[C@H]4[C@@H](C2)N(C)CC[C@@]341 [Codeine] |  |  |  | Kp,uu,CSF Human ([1]; in vivo): 0.79; Kp,uu,CSF Rat ([2]; in vivo): 0.54; Kp,uu,brain Rat ([2]; in vivo): 0.89 |
| CC(C)Nc1cccnc1N1CCN(C(=O)c2cc3cc(NS(C)(=O)=O)ccc3[nH]2)CC1 [Delavirdine] | 0.23 | 0.051 | 0.043 |  |
| CCC(C(N)=O)(C(N)=O)c1ccccc1 [Ethyl-phenylmalonamide] |  | 1.4 | 1.250 |  |
| COc1cc([C@@H]2c3cc4c(cc3[C@@H](O[C@@H]3O[C@@H]5CO[C@@H](C)O[C@H]5[C@H](O)[C@H]3O)[C@H]3COC(=O)[C@H]23)OCO4)cc(OC)c1O [Etoposide] |  |  |  | efflux ratio at 1 h, 1 μM (BCRP): 3.7; efflux ratio at 1 h, 1 μM (MDR1): 6.1 |
| CNCCC(Oc1ccc(C(F)(F)F)cc1)c1ccccc1 (stereo not shown) [Fluoxetine] |  |  |  | Kp,uu,brain Human ([1]; *3 ref Summerfield et al. (25)): 0.53; Kp,uu,brain Rat ([2]; *3 ref Summerfield et al. (25)): 2.143 |
| NCC1(CC(=O)O)CCCCC1 [Gabapentin] | 0.16 | 0.067 | 0.140 | Kp,uu,brain Human ([1]; *4 ref Friden et al. (21)): 0.16 |
| C[C@H]1COc2c(N3CCN(C)CC3)c(F)cc3c(=O)c(C(=O)O)cn1c23 [Levofloxacin] | 0.18 | 0.19 | 0.120 |  |
| CN1CC[C@]23c4c5ccc(O[C@@H]6O[C@H](C(=O)O)[C@@H](O)[C@H](O)[C@H]6O)c4O[C@H]2[C@@H](O)C=C[C@H]3[C@H]1C5 [M3G] | 0.081 | 0.049 | 0.011 |  |
| CN1CC[C@]23c4c5ccc(O)c4O[C@H]2[C@@H](O[C@@H]2O[C@H](C(=O)O)[C@@H](O)[C@H](O)[C@H]2O)C=C[C@H]3[C@H]1C5 [M6G] | 0.1 | 0.017 | 0.008 |  |
| CN1CCN2c3ncccc3Cc3ccccc3C2C1 (stereo not shown) [Mirtazapine] |  |  |  | Kp,uu,brain Human ([1]; *3 ref Summerfield et al. (25)): 0.79; Kp,uu,brain Rat ([2]; *3 ref Summerfield et al. (25)): 1.611 |
